Source: patent publication US11584916B2, “Method of making in vivo human small intestine organoids from pluripotent stem cells” (Children's Hospital Medical Center, priority 2014, dated 2023)
“Also recorded” adds a separate entry of the source.

Key:
HIO+NCC tissue = type: cell-based, human
HIO+NCC tissues = test: Ex-vivo intestinal motility, organ bath, muscle strips of engrafted HIO+NCC; type: cell-based, human
ENS neurons in HIOs+NCCs = test: Live imaging of Ca2+ flux (GCaMP6f) in HIOs+NCCs in vitro; type: cell-based, human; details: 30 mM; HIOs+GCaMP6 expressing NCCs
Source text: The accessibility of in vitro grown HIOs allowed us to test the functionality of neurons using live imaging with the Ca2+ sensor GCaMP6f19. To do this, Applicant generated HIOs and incorporated into them NCCs that were derived from a PSC line containing GCaMP6 (FIG. 17A). Imaging of neural activity in HIOs grown for 8 weeks in vitro detected broad, spontaneous, and rapid calcium transients within neurons. When individual neurons were monitored there was an obvious periodicity of calcium efflux in the range of 3-4 seconds/neuron (FIGS. 17B and 17C).

[1] = target: T1, peptide transporter (PEPT1) (Homo sapiens, UniProt P46059); details: in vivo
T1 sequence (P46059 1-708): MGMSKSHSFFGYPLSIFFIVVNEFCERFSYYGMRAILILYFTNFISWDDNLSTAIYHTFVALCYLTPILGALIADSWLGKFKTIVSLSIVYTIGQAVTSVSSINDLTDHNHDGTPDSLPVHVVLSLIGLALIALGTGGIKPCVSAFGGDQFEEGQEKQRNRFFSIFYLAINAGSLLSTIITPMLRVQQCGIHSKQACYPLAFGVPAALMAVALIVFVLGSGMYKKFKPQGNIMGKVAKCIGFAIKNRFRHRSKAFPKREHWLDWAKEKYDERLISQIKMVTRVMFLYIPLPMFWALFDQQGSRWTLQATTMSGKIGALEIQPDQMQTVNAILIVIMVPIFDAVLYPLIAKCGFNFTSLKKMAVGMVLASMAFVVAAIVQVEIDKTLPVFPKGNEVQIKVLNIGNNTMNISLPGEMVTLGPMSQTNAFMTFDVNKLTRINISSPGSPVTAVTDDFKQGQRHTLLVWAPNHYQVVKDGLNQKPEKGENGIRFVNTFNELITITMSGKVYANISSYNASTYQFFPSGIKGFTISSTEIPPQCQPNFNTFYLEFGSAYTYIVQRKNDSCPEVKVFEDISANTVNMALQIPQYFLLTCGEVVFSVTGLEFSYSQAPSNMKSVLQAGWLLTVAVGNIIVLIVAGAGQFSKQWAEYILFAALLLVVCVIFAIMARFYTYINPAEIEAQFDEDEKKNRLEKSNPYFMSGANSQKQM

[2] = system: vagal-level Hox genes HOXB3, HOXB5, and HOXB7; test: Posteriorization of human PSC-derived neurospheres/NCCs, Hox gene expression by qRT-PCR; type: cell-based; details: two days (48 hours) at the neurosphere stage; RA 2 μM
Experimental: Cells were fed mTeSR1 media and routinely passaged using Dispase II (Gibco). NCCs and HIOs were generated and combined at an early stage of intestinal differentiation to generate HIOs containing ENS. Briefly, for NCC generation (FIG. 1), hPSCs were treated with collagenase IV (500 U/mL) in mTeSR1 for 60 min to detach colonies. Cells were washed to remove collagenase, then gently triturated and resuspended in neural induction media on non-TC treated petri dishes. Neural induction media was changed daily and retinoic acid (2 μM) was added on days 4 and 5 for posteriorization. Day 6 free-floating neurospheres were plated on fibronectin (3 μg/cm2) and fed neural induction media without RA for 4 days. Migrated cells were collected using a brief Accutase treatment (2-3 min) and passaged onto fibronectin or used immediately for combining with HIOs. NCCs were differentiated essentially as described for neuroglial 9 and mesenchymal lineages 36. […] Following the formation of gut tube spheroids, Applicant gently centrifuged spheroids +/−NCCs and embedded them in Matrigel. […]
Total RNA from cells and organoids was isolated using NucleoSpin RNA isolation Kit (Macherey-Nagel). […] Applicant performed qPCR using QuantiTect SYBR Green PCR Kit (Qiagen) on a BioRad CFX96 Real-Time PCR Detection System. […]

[3] = system: vagal-level Hox genes HoxB3 and HoxB7; test: Chick cranial NCC culture, Hox gene expression; type: cell-based; details: 2 μM RA or 4 ng/mL FGF4 for 48 hours
Experimental: Chicken eggs were purchased from Charles River and incubated at 39° C. until they reached the desired Hamburger and Hamilton stage. For chicken NCC culture, dorsal neural tubes from cranial or trunk region of HH8 embryos were dissected by Gastromaster and cultured on matrigel-coated tissue culture dish with NCC culture medium (BajPai R et al, 2010) for 24 hours. The neural ectoderm was scrapped off the plate by tungsten needle after NCCs migrated out from the neural tube explants. The NCCs remained on the plate were then treated with 4 ng/mL FGF4 or 2 μM Retinoic acid for 48 hours. For NCCs injection, GFP-labeled human PSC-derived NCCs were collected and injected intersomitically into HH10-12 chicken embryos. The embryos were harvested around HH38 for analysis.

[4] = system: human pluripotent stem cells; test: Directed differentiation of human pluripotent stem cells into definitive endoderm; type: cell-based; details: 100 ng ml-1 Activin A for 3 d
Experimental: Human intestinal organoids were generated and maintained as previously described (Spence et al, Nature 2011 and McCracken et al. Nat. Protoc. 2011). Human embryonic stem cells and induced pluripotent stem cells were grown in feeder-free conditions in six-well Nunclon surface plates (Nunc) coated with Matrigel (BD Biosciences) and maintained in mTESR1 media (Stem Cell Technologies). For induction of definitive endoderm (DE), human ES or iPS cells were passaged with Dispase or Accutase (Invitrogen) and plated at a density of 100,000 cells per well in a Matrigel-coated, Nunclon surface 24-well plate. For Accutase split cells, 10 μM Y27632 compound (Sigma) was added to the media for the first day. Cells were allowed to grow until they reached 80-95% confluence. Cells were then treated with 100 ng ml-1 of Activin A for 3 d as previously described (D'Amour et al. Nat. Biotechnol. 2005). DE was then treated with hindgut induction medium (RPMI 1640, 2 mM L-glutamine, 2% decomplemented FBS, penicillin-streptomycin and 100 ng ml-1 Activin A) for 4 d with 500 ng mL-1 FGF4 (R&D) and 3 μM Chiron 99021 (Tocris) to induce formation of mid-hindgut spheroids. […]

## NC1=N[C@H](O)[C@H]2[C@H]3O[C@]4(O)O[C@@H]([C@@H](O)[C@@]2(N1)[C@@H]4O)[C@]3(O)CO [TTX, tetrodotoxin]
HIO+NCC tissue
  effect on contractions/motility triggered by low voltage EFS: completely inhibited and lost
HIO+NCC tissues
  effect on muscle relaxation in response to DMPP and or veratridine: inhibited the ability of the neurons to induce muscle relaxation

## [Cl-].[K+] [KC1]
ENS neurons in HIOs+NCCs
  neuronal calcium response: large wave of neuronal calcium efflux

## CN(C)c1ccc2nc3ccc(=[N+](C)C)cc-3sc2c1 [Methylene Blue]
HIO+NCC tissues; Methylene Blue 50 μM, no neuronal stimulation
  effect on spontaneous phasic contractions (ICC activity): abolished phasic contractions; also recorded: loss of contractile activity

## COC(=O)[C@@H](N)CCCNC(=N)N[N+](=O)[O-] [L-NAME, NG-nitro-L-arginine methyl ester]
HIO+NCC tissues; L-NAME applied 5 min before DMPP (10 μM) stimulation
  effect on relaxation after DMPP stimulation: significantly decreased the relaxation

## C[C@H](CS)C(=O)N1CCC[C@H]1C(=O)O [Captopril]
[1]
  fluorescence within the epithelium after injection of labeled peptide + competitive inhibitor: little to no fluorescence was observed

B1: FGF4: growth factor tested as a different posterizing factor (protein, UniProt P08620 31-206, looked up)
Fibroblast growth factor 4: APTAPNGTLEAELERRWESLVALSLARLPVAAQPKEAAVQSGAGDYLLGIKRLRRLYCNVGIGFHLQALPDGRIGGAHADTRDSLLELSPVERGVVSIFGVASRFFVAMSSKGKLYGSPFFTDECTFKEILLPNNYNAYESYKYPGMFIALSKNGKTKKGNRVSPTMKVTHFLPRL
[2]
  expression of vagal-level Hox genes in human PSC-derived NCCs: little effect
[3]
  Hox gene expression in chick cranial NCCs: had no effect

B2: Activin A: growth factor used to induce definitive endoderm (protein, UniProt P08476 311-426, looked up)
Inhibin beta A chain: GLECDGKVNICCKKQFFVSFKDIGWNDWIIAPSGYHANYCEGECPSHIAGTSGSSLSFHSTVINHYRMRGHSPFANLKSCCVPTKLRPMSMLYYDDGQNIIKKDIQNMIVEECGCS
modifications: Inhibin beta A chain
notes: growth factor used to induce definitive endoderm
[4]
  differentiation into definitive endoderm (FOXA2 and SOX17): efficient differentiation into definitive endoderm
